Assay: Toxicology study in dogs at 40 mg/kg
Type: in vivo, beagle dogs
Method: In another embodiment, the potential toxicity of PFK-158 (in the form of its dication) was investigated at 40 mg/kg in male and female beagle dogs using a 3 day a week for a total of three weeks dosing regimen. The potential toxicity of PFK-158 was investigated by monitoring all clinical signs during the in-life phase, taking blood and urine samples for full clinical chemistry panels and urinalysis, monitoring body weights and food intake. Gross necropsy and complete histopathology were performed at the time of termination.

With `O=C(/C=C/c1ccc2ccc(C(F)(F)F)cc2n1)c1ccncc1` [PFK-158, (E)-1-(pyridyn-4-yl)-3-(7-(trifluoromethyl)quinolin-2-yl)-prop-2-en-1-one] the signs of toxicity (beagle dogs, 40 mg/kg three times a week for three weeks) was “no signs of toxicity”, the NOAEL at 3 weeks (both sexes, beagle, dog, in vivo) was 40 mg/kg and the “Human Equivalent Dose (HED) of the NOAEL” value (dog, in vivo) was 800 mg/m^2.

From US9649305B2, “PFKFB3 inhibitor and methods of use as an anti-cancer therapeutic” (ADVANCED CANCER THERAPEUTICS, LLC, priority 2012, dated 2017)
